Test results as given in article PMC10043345, “Discovery of BAR502, as potent steroidal antagonist of leukemia inhibitory factor receptor for the treatment of pancreatic adenocarcinoma” (Frontiers in Oncology, 2023).

Molecular target: T1, hLIFR (Homo sapiens, UniProt P42702)
T1 sequence (P42702 45-1097): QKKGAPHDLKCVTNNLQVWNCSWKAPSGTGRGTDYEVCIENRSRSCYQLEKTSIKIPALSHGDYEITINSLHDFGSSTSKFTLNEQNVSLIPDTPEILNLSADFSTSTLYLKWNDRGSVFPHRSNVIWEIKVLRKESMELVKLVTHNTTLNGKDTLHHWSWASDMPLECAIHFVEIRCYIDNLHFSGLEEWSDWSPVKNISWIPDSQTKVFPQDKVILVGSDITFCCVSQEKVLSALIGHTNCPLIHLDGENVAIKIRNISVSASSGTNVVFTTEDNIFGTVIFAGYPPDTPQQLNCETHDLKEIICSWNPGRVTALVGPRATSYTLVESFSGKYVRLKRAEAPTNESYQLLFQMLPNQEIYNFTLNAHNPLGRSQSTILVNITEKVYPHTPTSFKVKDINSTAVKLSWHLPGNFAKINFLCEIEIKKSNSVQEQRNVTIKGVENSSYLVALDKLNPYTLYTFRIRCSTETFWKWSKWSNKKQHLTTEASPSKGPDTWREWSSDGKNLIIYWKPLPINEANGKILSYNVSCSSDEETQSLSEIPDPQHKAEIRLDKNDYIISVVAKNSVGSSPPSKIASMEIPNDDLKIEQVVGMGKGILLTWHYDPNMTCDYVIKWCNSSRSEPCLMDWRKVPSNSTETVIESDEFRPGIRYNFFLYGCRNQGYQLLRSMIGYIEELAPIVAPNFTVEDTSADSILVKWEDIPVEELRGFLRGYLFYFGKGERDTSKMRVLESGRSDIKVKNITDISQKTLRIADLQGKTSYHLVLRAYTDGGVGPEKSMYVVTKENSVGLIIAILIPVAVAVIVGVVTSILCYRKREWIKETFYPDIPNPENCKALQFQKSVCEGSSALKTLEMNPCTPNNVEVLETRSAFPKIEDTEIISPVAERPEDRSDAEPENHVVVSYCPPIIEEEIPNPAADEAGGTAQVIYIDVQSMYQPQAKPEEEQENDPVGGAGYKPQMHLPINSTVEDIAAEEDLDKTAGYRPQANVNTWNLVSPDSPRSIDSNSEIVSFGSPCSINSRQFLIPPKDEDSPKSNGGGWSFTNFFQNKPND
Assay: STAT3 transactivation in HepG2 cells transfected with hLIFR and CD130, stimulated with LIF
Assay type: cell-based
Conditions: LIF 10 ng/mL, read-out: HepG2 LIFR Antagonism IC50 (STAT3 transactivation)
Method: On day 0, HepG2 were seeded at 7.5 × 10^4 cells/well in a 24-well plate and maintained at 37°C and 5% CO2 in E-MEM supplemented with 10% FBS, 1% glutamine, and 1% penicillin/streptomycin. On day 1, cells were transiently transfected with the reporter plasmid pGL4.47[luc2P/SIE/Hygro] (200 ng) (CAT#: E4041 Promega, Madison, WI, USA), a vector encoding the hLIFR (CAT# RC226327) (100 ng) and CD130 (IL6ST) (100 ng) (CAT#: RC215123, OriGene Technologies, Inc. Rockville, MD, USA), and finally a vector encoding the human RENILLA luciferase gene (pGL4.70) (100 ng) (Promega, Madison, WI, USA). On day 2, cells were exposed to the cytokine LIF (10 ng/mL) alone or in combination with BAR502 (from 0.1 to 20 μM). […] For FXR mediated transactivation, HepG2 cells were plated at 7.5 × 10^4 cells/well in a 24 well plate. Cells were transfected with 200 ng of the reporter vector p(hsp27)-TK-LUC containing a FXR response element (IR1) cloned from the promoter of heat shock protein 27 (hsp27), 100 ng of pSG5-FXR, 100 ng of pSG5-RXR, and 100 ng of pGL4.70 (Promega), a vector encoding the human Renilla gene. To perform STAT3 transactivation, HepG2 were seeded at 7.5× 10^4 cells/well in a 24-well plate. On the day-1, cells were transiently transfected with 200 ng of the reporter plasmid pGL4.47[luc2P/SIE/Hygro] […] Luminescence was measured using a Glomax 20/20 luminometer (Promega, Madison, WI, USA). […]

SMILES: CC[C@H]1[C@@H](O)C2C3CC[C@H]([C@H](C)CCO)[C@@]3(C)CCC2[C@@]2(C)CC[C@@H](O)C[C@@H]12 (stereo partly shown) [BAR502]
- IC50: 2.73 µM
